A word on the MIC: it is the least concentration at which growth counts as inhibited. A word on the CC50: it is the concentration that lowers cell viability or growth by half. As a reminder, the MBC is the smallest concentration meeting the test's criterion for killing.

Converted amounts (≈) assume the structure as drawn. Some results are limits rather than exact numbers.

These results are taken from PMC12525867, “Aromaticity Tuning in Biaryl Monophosphines and Their Derivatives” (Molecules, 2025).

One data set relates to K. pneumoniae ATCC 13883. Put plainly: Antibacterial screening, broth microdilution (MIC/MBC). Type of data set: cell-based, Klebsiella pneumoniae. Conditions: Klebsiella pneumoniae, ATCC13883; K. pneumoniae ATCC 13883, MHB, 24 h, 35 °C; read-out: MIC. How it is done:
(§1) The antimicrobial activities of a series of compounds 1–5 were tested through the utilization of seven reference species, encompassing both Gram-positive (Staphylococcus aureus ATCC 29213, Staphylococcus epidermidis ATCC 12228, Micrococcus luteus ATCC 10240) and Gram-negative (Escherichia coli ATCC 25922, Klebsiella pneumoniae ATCC 13883, Proteus mirabilis ATCC 12453, Acinetobacter baumannii ATCC 19606) bacteria as model microorganisms. For this purpose, microbial suspensions were prepared in sterile saline (0.85% NaCl) with an optical density of 0.5 McFarland standard, yielding a concentration of 150 × 10^6 CFU/mL (CFU, colony-forming units). All of the stock solutions of the tested compounds were dissolved in DMSO. Amoxicillin (Glentham Life Sciences Ltd., Corsham, UK) was used as a positive control.
(§2) The MIC values of the tested compounds were determined by serial twofold dilutions of 1–5 in Mueller Hinton Broth (MHB, Biomaxima, Lublin, Poland). The range of final 1–5 concentrations used was from 0.49 up to 1000 μg/mL, and for amoxicillin from 0.12 up to 250 μg/mL in the 96-well microtiter plates (Medlab, Raszyn, Poland), starting with 98 μL MHB and 2 μL bacterial inoculum added to each well. Positive controls consisted of 100 μL MHB in each well with the tested compounds at the same concentration range. The negative controls consisted of 100 μL of MHB only. Each set of tests and controls was established with three replicates. The microtiter plates were then subjected to an incubation period of 24 h at a temperature of 35 ± 2 °C. After incubation, the optical density of the microbial growth was measured at a wavelength of 600 nm using a microplate reader, the Biotek Elx800 (BioTek Instruments, Inc., Winooski, VT, USA). The MIC value was defined as the lowest concentration of the tested compound at which there was no visible growth of the tested microorganisms. The determination of the MIC values was achieved by employing the broth microdilution method, in accordance with the recommendations of the European Committee on Antimicrobial Susceptibility Testing (EUCAST). […] Then, the MHA plates were incubated overnight at 35 ± 2 °C. […] The MIC and MBC values were reported in μg/mL, according to the EUCAST reference.
In general terms: Broth dilution looks for growth in wells or tubes with falling amounts of substance.

A short description of data set [1]: Cytotoxicity, microculture tetrazolium (MTT) test, VERO. In kind it is cell-based. To be noted: African green monkey, ATCC CCL-81; VERO (normal kidney cells), 24 h incubation, MTT; ± SD. How it is done:
(§3) The cytotoxicity of biaryl monophosphines was tested in vitro in normal (VERO) and cancer-derived (H1HeLa) cells after 24 h of incubation using a microculture tetrazolium test. Table 2 presents the CC50 (concentrations decreasing the cellular viability by 50%) values calculated from dose–response cytotoxicity curves (Figure 4).
(§4) Cytotoxicity was evaluated using a microculture tetrazolium test as previously described, and details can be found in the Supplementary Materials. The cell lines used in the presented study were acquired from the American Type Culture Collection (ATCC); the one used for cytotoxicity testing included non-cancerous VERO (kidney; ATCC CCL-81) cells and cancer-originating H1HeLa (cervical adenocarcinoma; ATCC CRL-1958) cells. VERO cells were cultured in Dulbecco’s Modified Eagle’s Medium (DMEM; Corning, Tewksbury, MA, USA), while Eagle’s Minimum Essential Medium (MEM; Corning) was used for H1HeLa. Antibiotics (penicillin–streptomycin solution, Corning) and fetal bovine serum (FBS, Corning) were added to cell media. Cells were incubated in a 5% CO2 atmosphere at 37 °C (CO2 incubator, Panasonic Healthcare Co., Tokyo, Japan). Briefly, the monolayers of VERO or H1HeLa cells in 96-well plates (Falcon, Corning) were treated with serial dilutions of selected compounds for 24 h. After this, the medium was removed, the plates were washed with phosphate buffered saline (PBS; Corning), a 10% solution of (3-(4,5-dimethylthiazol-2-yl)-2,5-diphenyltetrazolium bromide (MTT; Sigma-Aldrich, St. Louis, MO, USA) (5 mg/mL) in FBS-free cell media was added, and the incubation continued for the next 4 h. Subsequently, the precipitated formazan crystals were dissolved, and after overnight incubation at 37 °C, the Synergy H1 Multi-Mode Microplate Reader (BioTek Instruments, Inc., Winooski, VT, USA) with Gen5 software (ver. 3.09.07; BioTek Instruments, Inc.) was used for absorbance acquisition (540 and 620 nm). Data was exported to GraphPad Prism (ver. 10) to calculate the CC50 values (50% cytotoxic concentration) from dose–response curves.
(§5) Aromaticity Tuning in Biaryl Monophosphines and Their Derivatives […]
(§6) Cell line maintenance and in vitro experiments
(§7) The cytotoxicity of selected biaryl monophosphines was evaluated in vitro towards normal VERO (ATCC, CCL-81) cells and cancer-derived cell line H1HeLa (cervical adenocarcinoma; ATCC (American Type Culture Collection) CRL-1958) using 3-(4,5-dimethylthiazol-2-yl)-2,5-diphenylte-trazolium bromide (MTT) based protocol.
(§8) Media used for in vitro culturing included Dulbecco's Modified Eagle's Medium (DMEM, Corning, Tewksbury, MA, USA) used for VERO cells and Modified Eagle Medium (MEM, Corning) used for H1HeLa. Cell media used in the experiments were supplemented with antibiotics (Penicil-lin-Streptomycin Solution, Corning) and fetal bovine serum (FBS, Corning) – 10% (cell passaging) and 2% (cell maintenance and experiments). Phosphate-buffered saline (PBS) and trypsin were bought from Corning, whereas MTT (3-(4,5-dimethylthiazol-2-yl)-2,5-diphenyltetrazolium bromide) from Sigma (Sigma-Aldrich, St. Louis, MO, USA). SDS was purchased from PanReac Applichem (Darmstadt, Germany). Incubation was carried out in a 5% CO2 atmosphere at 37°C (CO2 incubator, Panasonic Healthcare Co., Tokyo, Japan).
(§9) Concentrations of cells for passaging were as follows: VERO – 1.5*10^5 cells/mL, H1HeLa – 2*10^5 cells/mL. Routine observations of cell cultures and experiments were carried out using an in-verted microscope (CKX41, Olympus Corporation, Tokyo, Japan) equipped with a ca mera (Moti-cam 3+, Motic, Hong Kong), and the results were recorded (Motic Images Plus 2.0, Motic).
(§10) Stock solutions of biaryl monophosphines were prepared by dissolving the samples in cell culture grade DMSO (PanReac Applichem).
(§11) Evaluation of cytotoxicity
(§12) Cytotoxicity was tested using an MTT-based protocol. The cells were passaged into 96-well plates (Falcon, TC-treated, Corning) and, after overnight incubation, treated with serial dilutions of […]

The next data set deals with M. luteus ATCC 10240. Put plainly: Antibacterial screening, broth microdilution (MIC/MBC). To be noted: Micrococcus luteus, ATCC10240; M. luteus ATCC 10240; read-out: MBC. Type of data set: cell-based, Micrococcus luteus. How it is done: as §1, §2
The next data set concerns H1HeLa cells. The data set is described as follows: Cytotoxicity, microculture tetrazolium (MTT) test, H1HeLa. In kind it is cell-based. Conditions: H1HeLa, 24 h, microscopy. How it is done:
as §3, §4, §5, §6, §7, §8, §9, §10, §11, §12

Experiment in data set [2]: as above
In kind it is cell-based. Conditions: human, H1HeLa cells (cervical adenocarcinoma, ATCC CRL-1958); H1HeLa (cervical adenocarcinoma), 24 h incubation, MTT; ± SD. How it is done:
as §3, §4, §5, §6, §7, §8, §9, §10, §11, §12

In the case of `COc1cc(OC)c(-c2c(P(=O)(C3CCCCC3)C3CCCCC3)c(OC)c3ccccc3c2OC)c(OC)c1` [Compound 1, Dicyclohexyl[1,4-dimethoxy-3-(2,4,6-trimethoxyphenyl)naphthalen-2-yl]phosphane oxide], the MIC in the data set with K. pneumoniae ATCC 13883 was > 1000 µg/mL. For the same molecule, the cytotoxic concentration (CC50) at 24 h in data set [1] worked out at 9.82 ± 0.59 µg/mL; in data set [2] it was 6.78 ± 0.27 µg/mL. The MBC in the data set on M. luteus ATCC 10240 was found to be 125 µg/mL (≈ 221 µM). In the data set on H1HeLa cells (12.5 µg/mL), the “influence on morphology of the cellular monolayer” value (shortened to “influence on morphology”) is given as “monolayer of H1Hela was destroyed”.

With `COc1ccccc1-c1c(P(=O)(C2CCCCC2)C2CCCCC2)c(OC)c2ccccc2c1OC` [Compound 2, Dicyclohexyl[1,4-dimethoxy-3-(2-methoxyphenyl)naphthalen-2-yl]phosphane oxide], in the data set with K. pneumoniae ATCC 13883, the MIC is > 1000 µg/mL. In addition, the half-maximal cytotoxic concentration (CC50) at 24 h in data set [1] was determined as 7.78 ± 0.44 µg/mL; in data set [2], 5.92 ± 0.4 µg/mL. In the data set with M. luteus ATCC 10240, the MBC is > 1000 µg/mL. Also, the “influence on morphology” value in the data set on H1HeLa cells (12.5 µg/mL) is reported as “monolayer of H1Hela was destroyed”.

Regarding `COc1cc(OC)c(-c2c(P(=O)(C3CCCCC3)C3CCCCC3)c(O)c3ccccc3c2OC)c(OC)c1` [Compound 3, 2-(Dicyclohexylphosphoryl)-4-methoxy-3-(2,4,6-trimethoxyphenyl)naphthalen-1-ol], in the data set with K. pneumoniae ATCC 13883, the minimum inhibitory concentration (MIC) was 500 µg/mL (≈ 905 µM). In addition, the CC50 at 24 h turned out to be 3.11 ± 0.14 µg/mL in data set [1] and 3.83 ± 0.33 µg/mL in data set [2]. Further, the minimum bactericidal concentration (MBC) in the data set on M. luteus ATCC 10240 is > 1000 µg/mL. Further, the “influence on morphology” value with H1HeLa cells (1.6 µg/mL) is reported as “the cellular monolayer resembled the control cells”; in the data set with H1HeLa cells (3.1 µg/mL) it was “only a fraction of shrunken cells visible”; in the data set on H1HeLa cells (6.3 µg/mL), “most of the cells showed cytotoxic damage”; in the data set on H1HeLa cells (12.5 µg/mL) it was “destroyed the cellular monolayer”.
